Assay results from patent US7906620B2, “Tumor associated antigen, peptides thereof, and use of same as anti-tumor vaccines” (Yeda Research and Development Co. Ltd., priority 2002, dated 2011).

Key:
LNCaP = experiment: Lysis of LNCaP tumor cells by human anti-peptide CTL; assay type: cell-based; conditions: LNCaP high and low HLA expressors as targets
Text: FIGS. 18A-18E are graphs showing that human anti-peptide CTL from a healthy donor kills LNCaP tumor cells. PBMC from a healthy donor (FIGS. 18A-18C) or a CaP patient (FIGS. 18D-18E) were stimulated with PAP-3 (FIGS. 18A, 18D), STEAP-3 (FIGS. 18B, 18E) or PSGR-1 (FIG. 18C) as described. LNCaP/CRL1740 (LNCaP high in HLA-A2.1 expression), LNCaP/CRL10995 (LNCaP low in HLA-A2.1 expression) and PC3 (negative for HLA-A2.1) served as targets in CTL assays.
When human PBMC are stimulated in vitro by PAP-3 and STEAP-3 peptides, the resulting CTL can lyse target cells (T2, EL4/HHD) pulsed with PAP-3, STEAP-3 or PSGR-1 and PSGR-6 peptides. (FIGS. 15 and 16). Here, these findings were expanded and peripheral blood of three healthy and two CaP individuals was tested for the existence of CTL precursors against PAP-3, STEAP-3 and PSGR-1 peptides. Leukopheresis products of the donors were obtained from Barzilai Medical Center (Ashkelon, Israel) according to Declaration of Helsinki Principles. PBMC were isolated by centrifugation on Ficoll-Plaque Plus gradients (Amersham, Sweden). In vitro priming of CTL was done over autologous DC that were prepared from monocytes by IL-4 and GM-CSF treatment and matured with a IL-1β, IL-6, TNF-α and PGE2 cocktail. DC were pulsed with synthetic peptides and PBMC were supplemented with IL-7. Two days later, IL-2 was added and renewed every three days. Two additional re-stimulations were done every 7 days over peptide pulsed monocytes. Seven days after the third stimulation, lymphocytes were harvested and a cytolytic assay was performed using relevant/non-relevant peptide pulsed or non-pulsed T2 cells (FIGS. 17A-17C) and LNCaP (high and low HLA expressors) cells as targets (FIGS. 18A-18E). […] Monitoring of HLA-A2-peptide specific CD8+ cells for PAP-3 and STEAP-3 was also performed by MHC-peptide tetramers (tetramers of recombinant HLA-A2.1-beta2 microglobulin single chain with peptides were prepared in collaboration with Dr Yoram Reiter, Technion, Haifa). […]

PC3-HHD tumors = experiment: Adoptive transfer of anti-peptide CTL to CD1 nude mice bearing PC3-HHD tumors; assay type: in vivo; conditions: for complete rejection of tumors: local injection day 7, PAP-3: 35×10^6 lymphocytes (11×10^6 CD8+), STEAP-3: 50×10^6 (3×10^6 CD8+), IL-2; for tumor growth in the other mice: same groups as complete rejection
Text: FIGS. 19A and 19B are graphs showing that adoptively transferred anti-peptide CTL retard tumor growth. HHD derived anti-PAP3 (FIG. 19A) or STEAP-3 (FIG. 19B) were stimulated in vitro and transferred to CD1 nude mice bearing 7 day PC3-HHD tumors (expressing PAP and STEAP) as described. Tumor growth was followed for 38 days.
HHD mice were immunized i.p. 6 times (twice at week) with 10^6 syngeneic dendritic cells pulsed with either PAP-3, STEAP-3 or irrelevant (tyrosinase-derived, HLA-A2.1 binding) peptides. Spleens were removed on day 10, and splenocytes were restimulated in vitro by 100 μM of either PAP-3 or STEAP-3 peptides in OPTIMEM for 2 h at 37° C., 5% CO2, followed by restimulation of lymphocytes for 4 more days in lymphocyte medium (RPMI-1640 supplemented with 25 mM HEPES, 10% heat-inactivated FCS, 0.1 mM non-essential amino acids, 1 mM sodium pyruvate, 2 mM. L-glutamine, 40 microg/ml garamycin and 5×10^−5 M 2-mercaptoethanol). Total lymphocytes were suspended at 10^6/ml and activated with plate-bound anti-CD3 mAb (145-2C11) for 72 h at 37° C. in 5% CO2 in 24-well plates. Activated cells were resuspended at a concentration of 3×10^5/ml lymphocyte medium with IL-2 (100 U/ml) for 3 days, then diluted 1:3 in fresh medium with IL-2 for an additional 4 days. Lymphocytes were harvested, samples were incubated with anti-CD4, anti-CD8 or isotype control mAb (all obtained from Catalog, USA), and analyzed using CellQuest software. Seven to nine CD1 nude mice per group received 4 Gy total body irradiation from a 137CS source, followed by s.c. inoculation with 5×10^6 PC3-HHD13 cells in Matrigel (BD PharMingen, San Diego, Calif.) to initiate tumors. Seven days later, mice were injected locally with 35×10^6 PAP-3 or tyrosinase specific lymphocytes (11×10^6 were CD8+), 50×10^6 STEAP-3 specific lymphocytes (3×10^6 were CD8+) or PBS. IL-2 (1000 U) was injected twice a day for five consecutive days. Tumor size was measured 3 times per week.

Sequence: ILLWQPIPV (listed as Homo sapiens) [PAP-3, PAP start position 135]
- lysis of tumor cells expressing endogenously processed proteins (LNCaP): lyse tumor cells
- complete rejection of tumors (PC3-HHD tumors): 4/8
- tumor growth in the other mice (PC3-HHD tumors): retarded growth

Sequence: LLLGTIHAL (listed as Homo sapiens) [STEAP-3, STEAP start position 262]
- lysis of tumor cells expressing endogenously processed proteins (LNCaP): lyse tumor cells
- complete rejection of tumors (PC3-HHD tumors): 2/9
- tumor growth in the other mice (PC3-HHD tumors): retarded growth
